# Assay results published in US11412733B2, “Method for enhancing plant disease controlling effects of isofetamid and method for controlling plant diseases” (ISHIHARA SANGYO KAISHA, LTD., priority 2016, dated 2022).
# Key:
# Format in all cases: in vivo
# Corynespora cassiicora [1] = test: Test Example 7: residual effect against cucumber leaf spot; conditions: isofetamid 200 ppm + product 0.05 wt %, four-leaf stage, 1,000 L/ha; inoculation after 7 days
# Method: Cucumber (cultivar: […] After the chemical solution dried, the cucumber was cultivated in a greenhouse for 7 days, and the cucumber was sprayed and inoculated with a suspension of conidia of Corynespora cassiicora, and kept under humidified chamber conditions at 23° C. for 24 hours. Thereafter, the cucumber was cultivated in a room at 20° C. under illumination for 7 days. The lesion area ratio on the first leaf was examined, and the control value was calculated based on the following formula. The obtained results are shown in Table 7. […] a: lesion area ratio in treated plot, b: lesion area ratio in non-treated plot
# Sphaerotheca fulidinea [2] = test: Test Example 4: rainfastness against cucumber powdery mildew; conditions: isofetamid 200 ppm + product 0.05 wt %, 1,000 L/ha; after 2 days rainfall 40 mm per hour for one hour, then adaxial inoculation
# Method: Cucumber (cultivar: […] After the chemical solution dried, the cucumber was cultivated in a greenhouse for 2 days, and rainfall treatment (rainfall intensity: 40 mm per hour) was carried out by means of an artificial rainfall apparatus for one hour, and after drying, the leaf adaxial surface was sprayed and inoculated with a suspension of conidia of Sphaerotheca fulidinea, and the cucumber was cultivated in a room at 20° C. under illumination for 7 days. The lesion area ratio on the adaxial surface of the first leaf was examined, and the control value was calculated based on the following formula. […] a: lesion area ratio in treated plot, b: lesion area ratio in non-treated plot
# Sphaerotheca fulidinea [3] = test: Test Example 6: penetration effect against cucumber powdery mildew; conditions: isofetamid 400 ppm + product 0.025 wt %, leaf adaxial surface, 1,000 L/ha; abaxial inoculation after 4 days
# From the text: Cucumber (cultivar: Sagamihanjiro Fushinari) was cultivated in a polyethylene pot having a diameter of 7.5 cm, and when the cucumber reached 1.5-leaf stage, an isofetamid 400 ppm solution prepared by adding an aqueous solution (0.025 wt %) of each of products containing the component (b) as identified in Table 6 to isofetamid was applied to the leaf adaxial surface by means of a spray gun in an amount corresponding to 1,000 L/ha. The cucumber was cultivated in a greenhouse for 4 days, and then the leaf abaxial side was sprayed and inoculated with a suspension of conidia of Sphaerotheca fulidinea, and the cucumber was cultivated in a room at 22° C. under illumination for 7 days. The lesion area ratio on the abaxial side of the first leaf was examined, and the control value was calculated based on the following formula. Control value=(1−a/b)×100
# (§1) a: lesion area ratio in treated plot, b: lesion area ratio in non-treated plot
# Sphaerotheca fulidinea [4] = test: Test Example 1: penetration effect against cucumber powdery mildew; conditions: isofetamid 400 ppm + product 0.05 wt %, leaf adaxial surface, 1,000 L/ha, abaxial inoculation after 4 days, No addition = without component (b)
# Method: Cucumber (cultivar: Sagamihanjiro Fushinari) was cultivated in a polyethylene pot having a diameter of 7.5 cm, and when the cucumber reached 1.5-leaf stage, an isofetamid 400 ppm solution prepared by adding an aqueous solution (0.05 wt %) of each of products containing the component (b) as identified in Tables 1-1 to 1-6 to isofetamid, was applied to the leaf adaxial surface by means of a spray gun in an amount of 1,000 L/ha (20 ml/0.2 m^2). After the chemical solution dried, the cucumber was cultivated in a greenhouse for 4 days, the leaf abaxial surface was sprayed and inoculated with a suspension of conidia of Sphaerotheca fulidinea, and the cucumber was cultivated in a room at 22° C. under illumination for 7 to 8 days. The lesion area ratio on the abaxial surface of the first leaf was examined, and the control value was calculated based on the following formula. In Tables, “no addition” means the above treatment without adding the component (b) (the same applies hereinafter). Control value=(1−a/b)×100
# as §1
# Corynesbora cassiicora [5] = test: Test Example 3: curative effect against cucumber leaf spot; conditions: inoculated 24 hours before treatment; isofetamid 400 ppm + product 0.05 wt %, 1,000 L/ha; examined 7 days after inoculation
# From the text: Cucumber (cultivar: […] The leaf was air-dried, and an isofetamid 400 ppm solution prepared by adding an aqueous solution (0.05 wt %) of each of products containing the component (b) as identified in Table 3 to isofetamid, was applied by means of a spray gun in an amount corresponding to 1,000 L/ha. […] a: lesion area ratio in treated plot, b: lesion area ratio in non-treated plot
# Corynesbora cassiicora [6] = test: Test Example 2: penetration effect against cucumber leaf spot; conditions: isofetamid 400 ppm + product 0.05 wt %, leaf adaxial surface, 1,000 L/ha; abaxial inoculation after 4 days; examined 7 days after inoculation
# From the text: Cucumber (cultivar: Natsusuzumi) was cultivated in a polyethylene pot having a diameter of 7.5 cm, and when the cucumber reached 1.5-leaf stage, an isofetamid 400 ppm solution prepared by adding an aqueous solution (0.05 wt %) of each of products containing the component (b) as identified in Table 2 to isofetamid, was applied to the leaf adaxial surface by means of a spray gun in an amount corresponding to 1,000 L/ha. The cucumber was cultivated in a greenhouse for 4 days, and the leaf abaxial surface was sprayed and inoculated with a suspension of conidia of Corynesbora cassiicora, and the cucumber was kept under humidified chamber conditions at 23° C. for 24 hours. Thereafter, the cucumber was kept in a thermostatic chamber at 20° C., and 7 days after the inoculation, the lesion area ratio on the first leaf was examined, and the control value was calculated based on the following formula. Control value=(1−a/b)×100
# Corynespora cassiicora [7] = test: Test Example 5: penetration effect against cucumber leaf spot with different surfactant concentrations; conditions: isofetamid 200 ppm without component (b); abaxial inoculation after 3 days
# Method: Cucumber (cultivar: […] The cucumber was cultivated in a greenhouse for 3 days, and the leaf abaxial side was sprayed and inoculated with a suspension of conidia of Corynespora cassiicora, and the cucumber was kept under humidified chamber conditions at 23° C. for 24 hours. […] a: lesion area ratio in treated plot, b: lesion area ratio in non-treated plot
smiles,measurement,setting,value
"Cc1cc(OC(C)C)ccc1C(=O)C(C)(C)NC(=O)c1sccc1C [No addition, isofetamid]",Control value,Corynespora cassiicora [1],80
same,Control value,Sphaerotheca fulidinea [2],62
same,Control value,Sphaerotheca fulidinea [3],54.6
same,Control value,Sphaerotheca fulidinea [4]; Table 1-1,0
same,Control value,Sphaerotheca fulidinea [4]; Table 1-2,6
same,Control value,Sphaerotheca fulidinea [4]; Table 1-3,4
same,Control value,Sphaerotheca fulidinea [4]; Table 1-4,11
same,Control value,Sphaerotheca fulidinea [4]; Table 1-5,14
same,Control value,Sphaerotheca fulidinea [4]; Table 1-6,68
same,Control value,Corynesbora cassiicora [5],0
same,Control value,Corynesbora cassiicora [6],68
same,Control value,Corynespora cassiicora [7],66.7
